This note sets out measurements from US20230374038A1, “MODULATORS OF CYSTIC FIBROSIS TRANSMEMBRANE CONDUCTANCE REGULATOR” (VERTEX PHARMACEUTICALS INCORPORATED, priority 2020, published 2023).

pEC50: −log10 of the molar value. Where only a bound is given, the exact number is not on record here.

The assay concerns the target CFTR (Homo sapiens, UniProt P13569). Kind of assay: Membrane Potential Dye, Enteroid Assay B. To be noted: for pEC50: read-out: Ent. B EC50. The class given is cell-based. The method, boiled down: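 Human intestinal enteroids seeded at 5000 cells/well, treated with compound 18-24 h at 37 °C, then loaded 25 min with methyl oxonol membrane-potential dye plus CaCC blockers. Chloride transport started in chloride-free buffer with 10 μM forskolin, 100 μM IBMX and 300 nM Compound III, read 15 min; expressed as % of triple-combination control.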

CFTR, sequence (P13569 with tags, fused parts or gaps DEL508-508): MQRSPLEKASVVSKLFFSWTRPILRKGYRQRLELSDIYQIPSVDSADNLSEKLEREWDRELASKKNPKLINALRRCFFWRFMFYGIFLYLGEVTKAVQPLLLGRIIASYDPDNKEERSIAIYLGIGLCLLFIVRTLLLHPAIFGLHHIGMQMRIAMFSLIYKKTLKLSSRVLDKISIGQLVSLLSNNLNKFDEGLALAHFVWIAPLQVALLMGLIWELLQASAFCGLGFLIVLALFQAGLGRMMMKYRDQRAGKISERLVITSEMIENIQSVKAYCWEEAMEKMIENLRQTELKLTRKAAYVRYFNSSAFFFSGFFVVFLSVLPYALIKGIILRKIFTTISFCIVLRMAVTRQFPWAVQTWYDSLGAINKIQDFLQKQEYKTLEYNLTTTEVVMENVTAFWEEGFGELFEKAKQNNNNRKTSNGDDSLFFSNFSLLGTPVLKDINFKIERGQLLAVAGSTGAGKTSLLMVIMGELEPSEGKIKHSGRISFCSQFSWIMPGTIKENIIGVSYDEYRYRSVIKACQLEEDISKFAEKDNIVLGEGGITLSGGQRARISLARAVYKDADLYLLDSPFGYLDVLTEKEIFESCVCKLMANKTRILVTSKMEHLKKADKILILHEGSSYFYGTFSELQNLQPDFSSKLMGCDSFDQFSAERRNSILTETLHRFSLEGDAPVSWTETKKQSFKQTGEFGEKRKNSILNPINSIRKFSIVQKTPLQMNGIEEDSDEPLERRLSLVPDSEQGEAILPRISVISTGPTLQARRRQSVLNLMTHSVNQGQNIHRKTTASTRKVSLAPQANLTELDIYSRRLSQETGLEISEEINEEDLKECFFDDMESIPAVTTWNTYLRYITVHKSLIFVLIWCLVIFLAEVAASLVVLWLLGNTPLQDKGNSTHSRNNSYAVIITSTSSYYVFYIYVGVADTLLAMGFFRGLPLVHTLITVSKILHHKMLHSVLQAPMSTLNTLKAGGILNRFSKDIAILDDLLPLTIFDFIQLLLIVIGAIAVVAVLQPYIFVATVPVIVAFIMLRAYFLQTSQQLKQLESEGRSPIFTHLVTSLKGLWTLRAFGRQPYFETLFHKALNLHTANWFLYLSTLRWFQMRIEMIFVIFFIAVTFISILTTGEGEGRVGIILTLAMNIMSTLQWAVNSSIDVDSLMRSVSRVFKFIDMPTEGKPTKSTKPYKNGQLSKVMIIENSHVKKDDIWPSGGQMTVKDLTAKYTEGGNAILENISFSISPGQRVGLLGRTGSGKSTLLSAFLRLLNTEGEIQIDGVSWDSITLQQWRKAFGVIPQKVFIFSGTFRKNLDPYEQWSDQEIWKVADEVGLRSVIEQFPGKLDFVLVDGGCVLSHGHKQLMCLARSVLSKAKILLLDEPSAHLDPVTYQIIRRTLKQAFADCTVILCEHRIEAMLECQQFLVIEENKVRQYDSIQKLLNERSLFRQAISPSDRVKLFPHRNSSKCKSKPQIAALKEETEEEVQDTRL

One may read the pEC50 as −log10 of the EC50, conventionally taken in molar units. With `Cc1cccc(C)c1-c1nc2nc(c1C)OC[C@@H](CC1(C(F)(F)F)CC1)N(C1CC3(CC(N(C)C)C3)C1)C(=O)c1cccc(c1)S(=O)(=O)N2` (stereo in doubt) [Compound 90], the “Ent. B Max Activity” value is on record as “+++ (+++ is >60%)” and the pEC50 was greater than 6.00.

As for `Cc1cccc(C)c1-c1nc2nc(c1C1=CCN(C(=O)OC(C)(C)C)CC1)OC[C@@H](C)NC(=O)c1cccc(c1)S(=O)(=O)N2` [Compound 136], the “Ent. B Max Activity” value is “++ (++ is 30-60%)” and the pEC50 was 5.52 to 6.00.

On to `COC1CC(N2C(=O)c3cccc(c3)S(=O)(=O)Nc3nc(c(C)c(-c4c(C)cccc4C)n3)OC[C@H]2CC(C)(C)C)C1` (some centres unmarked) [Compound 83], for which the “Ent. B Max Activity” value is “+++ (+++ is >60%)” and the pEC50 was greater than 6.00.

With `COC(=O)NC1CC2(C1)CC(N1C(=O)c3cccc(c3)S(=O)(=O)Nc3nc(c(C)c(-c4c(C)cccc4C)n3)OC[C@H]1CC(C)C)C2` (stereo in doubt) [Compound 68], the “Ent. B Max Activity” value is “+++ (+++ is >60%)” and the pEC50 is greater than 6.00.

Regarding `Cc1cccc(C)c1-c1nc2nc(c1C)OC[C@@H](CC(C)C)N(C1CC3(CC(CO)C3)C1)C(=O)c1cccc(c1)S(=O)(=O)N2` (stereo in doubt) [Compound 66], the “Ent. B Max Activity” value is given as “+++ (+++ is >60%)” and the pEC50 was greater than 6.00.

In the case of `Cc1cccc(C)c1-c1nc2nc(c1C)OC[C@@H](CC(C)C)N([C@H]1C[C@@]3(C[C@H](N(C)C)C3)C1)C(=O)c1cccc(c1)S(=O)(=O)N2` (single isomer, unassigned) [Compound 54], the “Ent. B Max Activity” value is on record as “+++ (+++ is >60%)” and the pEC50 was greater than 6.00.

As for `Cc1cccc(C)c1-c1nc2nc(c1C)OCCN(C1CC3(CC(NC(=O)OC(C)(C)C)C3)C1)C(=O)c1cccc(c1)S(=O)(=O)N2` (centres unmarked) [Compound 37], the “Ent. B Max Activity” value is “++ (++ is 30-60%)” and the pEC50 is greater than 6.00.

Consider `Cc1cccc(C)c1-c1nc2nc(c1-c1cnn(C)c1)O[C@H](C)CNC(=O)c1cccc(c1)S(=O)(=O)N2` [Compound 128], for which the “Ent. B Max Activity” value was “+ (+ is <30%)”.

Turning to `Cc1cccc(C)c1-c1nc2nc(c1C)OC(c1ccc(CC3(C(F)(F)F)CC3)cn1)CN(C)C(=O)c1cccc(c1)S(=O)(=O)N2` (centres unmarked) [Compound 204], the “Ent. B Max Activity” value is reported as “++ (++ is 30-60%)” and the pEC50 was greater than 6.00.

`Cc1cccc(C)c1-c1nc2nc(c1C)OCCCN(C1CC3(CC(NC(=O)OC(C)(C)C)C3)C1)C(=O)c1cccc(c1)S(=O)(=O)N2` (centres unmarked) [Compound 38]: the “Ent. B Max Activity” value is on record as “+ (+ is <30%)” and the pEC50 is greater than 6.00.

For `COC1CC(N2C(=O)c3cccc(c3)S(=O)(=O)Nc3nc(c(C)c(-c4c(C)cccc4C)n3)OC[C@H]2CC(C)(C)C)C1` (some centres unmarked) [Compound 84], the “Ent. B Max Activity” value is on record as “+++ (+++ is >60%)” and the pEC50 is greater than 6.00.

As to `COc1c2nc(nc1-c1c(C)cccc1C)NS(=O)(=O)c1cccc(c1)C(=O)N[C@H](CC(C)C)CO2` [Compound 180], the “Ent. B Max Activity” value was “+++ (+++ is >60%)” and the pEC50 is greater than 6.00.

Consider `Cc1cccc(C)c1-c1nc2nc(c1C)OC[C@@H](CC1(C(F)(F)F)CC1)NC(=O)c1cccc(c1)S(=O)(=O)N2` [Compound 103], for which the “Ent. B Max Activity” value is given as “+++ (+++ is >60%)” and the pEC50 is greater than 6.00.

As to `Cc1cccc(C)c1-c1nc2nc(c1C)O[C@@H]1CN(C3CC4(CCCCC4)C3)C[C@H]1NC(=O)c1cccc(c1)S(=O)(=O)N2` [Compound 104, (3R,7R)-19-(2,6-dimethylphenyl)-20-methyl-5-{spiro[3.5]nonan-2-yl}-2-oxa-15λ^6-thia-5,8,16,18,21-pentaazatetracyclo[15.3.1.110,14.03,7]docosa-1(21),10,12,14(22),17,19-hexaene-9,15,15-trione], the “Ent. B Max Activity” value was “+++ (+++ is >60%)” and the pEC50 was greater than 6.00.

Regarding `COC(=O)NC1CC2(C1)CC(N1C(=O)c3cccc(c3)S(=O)(=O)Nc3nc(c(C)c(-c4c(C)cccc4C)n3)OC[C@H]1CC1(C(F)(F)F)CC1)C2` (stereo in doubt) [Compound 86], the “Ent. B Max Activity” value is recorded as “+++ (+++ is >60%)” and the pEC50 is greater than 6.00.

Consider `Cc1cccc(C)c1-c1nc2nc(c1C)OC[C@@H](CC(C)C)NC(=O)c1cccc(c1)S(=O)(=O)N2` [Compound 73], for which the “Ent. B Max Activity” value is recorded as “+++ (+++ is >60%)” and the pEC50 was greater than 6.00.

As to `Cc1cccc(C)c1-c1nc2nc(c1C)OC[C@@H](CC1(C(F)(F)F)CC1)N(C1CC3(CC(NC(=O)OC(C)(C)C)C3)C1)C(=O)c1cccc(c1)S(=O)(=O)N2` (stereo in doubt) [Compound 98], the “Ent. B Max Activity” value is given as “+++ (+++ is >60%)” and the pEC50 was greater than 6.00.

`Cc1cccc(C)c1-c1nc2nc(c1C)OC[C@@H](CC1(C(F)(F)F)CC1)N(C1CC3(CC(N)C3)C1)C(=O)c1cccc(c1)S(=O)(=O)N2` (some centres unmarked) [Compound 93]: the “Ent. B Max Activity” value was “+++ (+++ is >60%)” and the pEC50 is greater than 6.00.

For the molecule `Cc1cccc(C)c1-c1nc2nc(c1C1CCOCC1)O[C@H](C)CNC(=O)c1cccc(c1)S(=O)(=O)N2` [Compound 151], the “Ent. B Max Activity” value is listed as “++ (++ is 30-60%)”.

Take `Cc1cccc(C)c1-c1nc2nc(c1C)OC[C@@H](CC(C)(C)C(F)(F)F)N(C1CC3(CCNCC3)C1)C(=O)c1cccc(c1)S(=O)(=O)N2` [Compound 157, (11R)-12-{7-Azaspiro[3.5]nonan-2-yl}-6-(2,6-dimethylphenyl)-7-methyl-11-(3,3,3-trifluoro-2,2-dimethylpropyl)-9-oxa-2λ^6-thia-3,5,12,19-tetraazatricyclo[12.3.1.14,8]nonadeca-1(17),4(19),5,7,14(18),15-hexaene-2,2,13-trione]: the “Ent. B Max Activity” value is “+++ (+++ is >60%)” and the pEC50 is greater than 6.00.

As to `Cc1cccc(C)c1-c1nc2nc(c1F)OC[C@@H](CC(C)C)N(C1CC3(CCNCC3)C1)C(=O)c1cccc(c1)S(=O)(=O)N2` [Compound 186], the “Ent. B Max Activity” value is on record as “++ (++ is 30-60%)” and the pEC50 was greater than 6.00.

Turning to `Cc1cccc(C)c1-c1nc2nc(c1-c1cccnc1)OC[C@@H](C)NC(=O)c1cccc(c1)S(=O)(=O)N2` [Compound 143], the “Ent. B Max Activity” value is reported as “+ (+ is <30%)”.

Take `Cc1cccc(C)c1-c1nc2nc(c1C1CCN(C(=O)OC(C)(C)C)CC1)OC[C@@H](C)NC(=O)c1cccc(c1)S(=O)(=O)N2` [Compound 141]: the “Ent. B Max Activity” value is “+ (+ is <30%)”.

`Cc1cccc(C)c1-c1nc2nc(c1C)OC[C@@H](CC1(C(F)(F)F)CC1)N(C1CC3(CC(NC(=O)OC(C)(C)C)C3)C1)C(=O)c1cccc(c1)S(=O)(=O)N2` (stereo in doubt) [Compound 97]: the “Ent. B Max Activity” value is “+++ (+++ is >60%)” and the pEC50 is greater than 6.00.

For `Cc1cccc(C)c1-c1nc2nc(c1C)OC[C@@H](CC(C)(C)C)N(C1CC3(CC(N)C3)C1)C(=O)c1cccc(c1)S(=O)(=O)N2` (some centres unmarked) [Compound 96], the “Ent. B Max Activity” value is reported as “+++ (+++ is >60%)” and the pEC50 was greater than 6.00.

As for `Cc1cccc(C)c1-c1nc2nc(c1-c1cnn(C(C)C)c1)O[C@H](C)CNC(=O)c1cccc(c1)S(=O)(=O)N2` [Compound 147], the “Ent. B Max Activity” value is “++ (++ is 30-60%)” and the pEC50 is 4.52 to 5.52.

In the case of `Cc1cccc(C)c1-c1nc2nc(c1C)OC[C@@H](CC(C)(C)O)N(Cc1ccc(C(C)(C)O)cc1)C(=O)c1cccc(c1)S(=O)(=O)N2` [Compound 114], the “Ent. B Max Activity” value is listed as “+++ (+++ is >60%)” and the pEC50 is greater than 6.00.

In the case of `Cc1cccc(C)c1-c1nc2nc(c1/C=C/C(C)(C)C)OC[C@@H](C)NC(=O)c1cccc(c1)S(=O)(=O)N2` [Compound 138], the “Ent. B Max Activity” value is recorded as “++ (++ is 30-60%)” and the pEC50 was greater than 6.00.

As for `COC(=O)NC1CC2(C1)CC(N1C(=O)c3cccc(c3)S(=O)(=O)Nc3nc(c(C)c(-c4c(C)cccc4C)n3)OC[C@H]1CC(C)C)C2` (stereo in doubt) [Compound 69], the “Ent. B Max Activity” value is given as “+++ (+++ is >60%)” and the negative logarithm of the EC50 (pEC50) was greater than 6.00.

Regarding `COCCN1CCC2(CC1)CC(N1C(=O)c3cccc(c3)S(=O)(=O)Nc3nc(c(OC)c(-c4c(C)cccc4C)n3)OC[C@H]1CC(C)C)C2` [Compound 166, (11R)-6-(2,6-dimethylphenyl)-11-isobutyl-7-methoxy-12-[7-(2-methoxyethyl)-7-azaspiro[3.5]nonan-2-yl]-2,2-dioxo-9-oxa-2λ^6-thia-3,5,12,19-tetrazatricyclo[12.3.1.14,8]nonadeca-1(18),4(19),5,7,14,16-hexaen-13-one], the “Ent. B Max Activity” value is reported as “+++ (+++ is >60%)” and the pEC50 is greater than 6.00.

Consider `Cc1cccc(C)c1-c1nc2nc(c1CO)OC[C@@H](CC(C)C)N(C1CC3(CC3)C1)C(=O)c1cccc(c1)S(=O)(=O)N2` [Compound 170, (11R)-6-(2,6-Dimethylphenyl)-7-(hydroxymethyl)-11-isobutyl-2,2-dioxo-12-spiro[2.3]hexan-5-yl-9-oxa-2λ^6-thia-3,5,12,19-tetrazatricyclo[12.3.1.14,8]nonadeca-1(18),4(19),5,7,14,16-hexaen-13-one], for which the “Ent. B Max Activity” value was “++ (++ is 30-60%)” and the pEC50 is greater than 6.00.

Consider `COC1CC(N2C(=O)c3cccc(c3)S(=O)(=O)Nc3nc(c(C)c(-c4c(C)cccc4C)n3)OC[C@H]2CC2(C(F)(F)F)CC2)C1` (some centres unmarked) [Compound 99], for which the “Ent. B Max Activity” value is reported as “+++ (+++ is >60%)” and the pEC50 was greater than 6.00.

Regarding `COC(=O)NC1CC2(C1)CC(N1C(=O)c3cccc(c3)S(=O)(=O)Nc3nc(c(C)c(-c4c(C)cccc4C)n3)OC[C@H]1CC(C)(C)C)C2` (single isomer, unassigned) [Compound 64], the “Ent. B Max Activity” value was “+++ (+++ is >60%)” and the pEC50 is greater than 6.00.
